According to US20240041042A1, “1-(PYRIDYL)-5-AZINYLPYRAZOLE DERIVATIVES, AND THEIR USE FOR CONTROL OF UNDESIRED PLANT GROWTH” (Bayer Aktiengesellschaft, priority 2020, published 2024):
Read-outs that look alike come from different tables or passages of the source.

Tests used:
Format in all cases: in vivo
[1] = system: Echinochloa crus-galli (ECHCG); assay: Post-emergence herbicidal action against ECHCG
In short: (§1)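 Values are percent visual activity (0% like control, 100% plants dead) after about 3 weeks in the greenhouse. Treatment: post-emergence spray at one-leaf stage, 600 l/ha spray volume, 0.5% additive, doses 320 g/ha or lower.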

Avena fatua (AVEFA) = assay: Post-emergence herbicidal action against AVEFA; conditions: visual rating about 3 weeks after treatment
In short: as §1

[2] = system: Polygonum convolvulus (POLCO); assay: Post-emergence herbicidal action against POLCO
In short: as §1

[3] = system: Verconica persica (VERPE); assay: Post-emergence herbicidal action against VERPE
In short: as §1

Lolium rigidum (LOLRI) = assay: Post-emergence herbicidal action against LOLRI
In short: as §1

Viola tricolor (VIOTR) = assay: Post-emergence herbicidal action against VIOTR
In short: as §1

[4] = system: Abutilon theophrasti (ABUTH); assay: Post-emergence herbicidal action against ABUTH; conditions: visual rating about 3 weeks after treatment vs untreated controls (100% = plants have died, 0% = like control plants)
In short: as §1

Oryza sativa (ORYSA) = conditions: crop plant compatibility
In short: (§2)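 Visual rating (% effect vs. untreated plants; 100% = plant death) made about 3 weeks after treatment. Plants had been sprayed at one-leaf stage, 2–3 weeks post-sowing, with aqueous WP/EC preparations containing 0.5% additive, 600 l/ha water volume; a, b, c mark dose levels.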

Zea mays (ZEAMX) = conditions: for Post-emergence action against ZEAMX in % (crop plant compatibility): 20 g/ha, effect in comparison to untreated controls; for Post-emergence action against ZEAMX in %: crop plant compatibility, 80 g/ha, effect vs untreated controls
In short: as §2

[5] = system: Matricaria inodora (MATIN); assay: Post-emergence herbicidal action against MATIN
In short: as §1

[6] = system: Pharbitis purpurea (PHBPU); assay: Post-emergence herbicidal action against PHBPU
In short: as §1

Setaria viridis (SETVI) = assay: Post-emergence herbicidal action against SETVI
In short: as §1

[7] = system: Alopecurus myosuroides (ALOMY); assay: Post-emergence herbicidal action against ALOMY; conditions: visual rating about 3 weeks after treatment vs untreated controls (100% = plants have died, 0% = like control plants)
In short: as §1

[8] = system: Digitaria sanguinalis (DIGSA); assay: Post-emergence herbicidal action against DIGSA; conditions: visual rating about 3 weeks after treatment
In short: as §1

[9] = system: Amaranthus retroflexus (AMARE); assay: Post-emergence herbicidal action against AMARE
In short: as §1

[10] = 20 g/ha, effect vs untreated controls
[11] = 80 g/ha, effect in comparison to untreated controls
[12] = 80 g/ha, visual rating about 3 weeks after treatment vs untreated controls (100% = plants have died, 0% = like control plants)
[13] = 320 g/ha, visual rating about 3 weeks after treatment

SMILES	Post-emergence action against ECHCG in % ([1]; dosage 320 g/ha)	Post-emergence action against AVEFA in % (Avena fatua (AVEFA); 320 g/ha)	Post-emergence action against POLCO in % ([2]; dosage 320 g/ha)	Post-emergence action against VERPE in % ([3]; 320 g/ha, VERPE)	Post-emergence action against VERPE in % ([3]; dosage 80 g/ha)	Post-emergence action against LOLRI in % (Lolium rigidum (LOLRI); dosage 80 g/ha)	Post-emergence action against LOLRI in % (Lolium rigidum (LOLRI); dosage 320 g/ha)	Post-emergence action against VIOTR in % (Viola tricolor (VIOTR); 80 g/ha)	Post-emergence action against VIOTR in % (Viola tricolor (VIOTR); 320 g/ha)	Post-emergence action against ABUTH in % ([4]; 320 g/ha)	Post-emergence action against ORYSA in % (Oryza sativa (ORYSA); [10])	Post-emergence action against MATIN in % ([5]; dosage 320 g/ha)	Post-emergence action against PHBPU in % ([6]; dosage 80 g/ha)	Post-emergence action against PHBPU in % ([6]; dosage 320 g/ha)	Post-emergence action against SETVI in % (Setaria viridis (SETVI); dosage 80 g/ha)	Post-emergence action against SETVI in % (Setaria viridis (SETVI); dosage 320 g/ha)	Post-emergence action against ALOMY in % ([7]; 80 g/ha)	Post-emergence action against ALOMY in % ([7]; 320 g/ha)	Post-emergence action against DIGSA in % ([8]; 320 g/ha)	Post-emergence action against AVEFA in % (Avena fatua (AVEFA); 80 g/ha)	other results
COC(=O)C(C)COC(=O)C(C)Oc1nn(-c2ccccn2)c(-c2ccc(F)nc2)c1Br (stereo not drawn) [Example I-285]	80%	80%	80%	80%	80%	80%	90%	80%	80%	80%	10%	80%	80%	90%	90%	90%	90%	90%	90%	–	Post-emergence action against ORYSA in % (Oryza sativa (ORYSA); [11]): 10%; Post-emergence action against ZEAMX in % (crop plant compatibility) (Zea mays (ZEAMX)): 10%; Post-emergence action against DIGSA in % ([8]; 80 g/ha): 80%
CCCOC(=O)COc1nn(-c2ncccc2F)c(-c2ccc(F)nc2)c1C1CC1 [Example I-344]	90%	90%	90%	90%	90%	90%	90%	80%	80%	80%	0%	80%	90%	90%	90%	90%	90%	90%	90%	90%	Post-emergence action against ECHCG in % ([1]; dosage 80 g/ha): 90%; Post-emergence action against AMARE in % [9, 12]: 90%; Post-emergence action against AMARE in % [9, 13]: 90%; Post-emergence action against POLCO in % ([2]; dosage 80 g/ha): 80%; Post-emergence action against ABUTH in % ([4]; 80 g/ha): 80%; Post-emergence action against ORYSA in % (Oryza sativa (ORYSA); [11]): 0%; Post-emergence action against ZEAMX in % (crop plant compatibility) (Zea mays (ZEAMX)): 0%; Post-emergence action against ZEAMX in % (Zea mays (ZEAMX)): 0%; Post-emergence action against MATIN in % ([5]; dosage 80 g/ha): 80%; Post-emergence action against DIGSA in % ([8]; 80 g/ha): 90%
CCOC(=O)[C@@H](C)Oc1nn(-c2nc(F)ccc2F)c(-c2cncc(F)c2)c1C1CC1 [Example I-177]	100%	90%	90%	100%	100%	100%	100%	100%	100%	90%	0%	90%	90%	90%	90%	90%	–	100%	90%	90%	Post-emergence action against ECHCG in % ([1]; dosage 80 g/ha): 100%; Post-emergence action against AMARE in % [9, 12]: 90%; Post-emergence action against AMARE in % [9, 13]: 90%; Post-emergence action against POLCO in % ([2]; dosage 80 g/ha): 90%; Post-emergence action against ABUTH in % ([4]; 80 g/ha): 90%; Post-emergence action against MATIN in % ([5]; dosage 80 g/ha): 90%
CCOC(=O)[C@@H](C)Oc1nn(-c2ncccc2F)c(-c2cncc(F)c2)c1C1CC1 [Example I-172]	90%	90%	80%	90%	80%	90%	90%	80%	90%	80%	20%	90%	80%	90%	80%	80%	90%	90%	90%	80%	Post-emergence action against ECHCG in % ([1]; dosage 80 g/ha): 80%; Post-emergence action against AMARE in % [9, 13]: 80%; Post-emergence action against MATIN in % ([5]; dosage 80 g/ha): 90%; Post-emergence action against DIGSA in % ([8]; 80 g/ha): 80%
COC(=O)[C@@H](C)Oc1nn(-c2ncccc2F)c(-c2cncc(F)c2)c1C1CC1 [Example I-144]	90%	90%	80%	90%	90%	90%	90%	90%	90%	90%	0%	90%	90%	90%	90%	90%	90%	90%	90%	90%	Post-emergence action against ECHCG in % ([1]; dosage 80 g/ha): 90%; Post-emergence action against AMARE in % [9, 12]: 90%; Post-emergence action against AMARE in % [9, 13]: 90%; Post-emergence action against POLCO in % ([2]; dosage 80 g/ha): 80%; Post-emergence action against ABUTH in % ([4]; 80 g/ha): 80%; Post-emergence action against MATIN in % ([5]; dosage 80 g/ha): 90%; Post-emergence action against DIGSA in % ([8]; 80 g/ha): 90%
COC(=O)[C@H](C)COC(=O)[C@@H](C)Oc1nn(-c2ccccn2)c(-c2ccc(F)nc2)c1Cl [Example I-275]	90%	90%	80%	90%	90%	90%	90%	90%	90%	80%	–	90%	90%	100%	90%	90%	80%	100%	90%	90%	Post-emergence action against AMARE in % [9, 13]: 80%; Post-emergence action against POLCO in % ([2]; dosage 80 g/ha): 80%; Post-emergence action against ABUTH in % ([4]; 80 g/ha): 80%; Post-emergence action against ZEAMX in % (crop plant compatibility) (Zea mays (ZEAMX)): 0%; Post-emergence action against ZEAMX in % (Zea mays (ZEAMX)): 20%; Post-emergence action against MATIN in % ([5]; dosage 80 g/ha): 80%
